Structures are written as SMILES.

For test [1], the system named is carrageenan-induced rat hind paw edema. The test can be described thus: Carrageenan-induced rat paw edema inhibition assay. The class given is in vivo. To be noted: oral 0.0314 mmol/kg, after 4 h. As for the experimental part:
The anti-inflammatory efficacy of the newly synthesised compounds was assessed using a carrageenan-induced rat hind paw edema technique The animals were divided into groups of six at random, fasted for 24 h before to the experiment, and given free access to water. 0.5% CMC solution was given to the control group only. […] One hour after the administration of the test compounds and the reference drug, 0.1 mL of a 1% carrageenan solution in saline was subcutaneously injected into the subplantar area of the right hind paw of each rat. The right hind paw volume was measured using a Digital Plethysmometer PLM-01 Plus (Orchid Scientifics and Innovatives India Pvt. Ltd., Mumbai, India) at 3 and 4 h after carrageenan therapy. The following calculation was used to compute the percent edema inhibition from the mean effect in the treated and control animals: Percent edema inhibition=Vc-Vt/Vc×100 where Vc denotes the mean increase in paw volume in the control group of rats and Vt denotes the mean increase in paw volume in rats treated with test chemicals. After a 15-day washout period, the same group of rats utilised for the anti-inflammatory activity were employed for the ulcerogenic activity.

Test [2] relates to carrageenan-induced paw edema inflammation. Also on record: method as in earlier work. The conditions noted are these: albino rats; ref 50 (Saliyeva et al.); cited from earlier work.

Turning to `O=C(O)Cc1ccccc1Nc1c(Cl)cccc1Cl` [Diclofenac sodium, reference compound], in test [1], the “% inhibition (paw edema)” value is on record as 80.32%. Further, the “% inhibition carrageenan-induced paw edema” value in test [2] is given as 38.8%.

(Values after PMC11009276, “Design, synthesis, biological assessment and molecular modeling studies of novel imidazothiazole-thiazolidinone hybrids as potential anticancer and anti-inflammatory agents” (Scientific Reports, 2024).)
